Here are results for one compound from ChEMBL document CHEMBL5576124, “Discovery of an Exceptionally Orally Bioavailable and Potent HPK1 PROTAC with Enhancement of Antitumor Efficacy of Anti-PD-L1 Therapy” (J Med Chem, 2024).

For data set [1], the target named is T1, Protein cereblon/Mitogen-activated protein kinase kinase kinase kinase 1 (Homo sapiens, UniProt Q92918+Q96SW2). Nature of the data set: PROTAC activity at CRBN/HPK1 in human Jurkat cells assessed as degradation of HPK1 protein incubated for 24 hrs by Western blotting analysis. In kind it is cell-based.
Target sequence in this assay (Q92918 whole entry): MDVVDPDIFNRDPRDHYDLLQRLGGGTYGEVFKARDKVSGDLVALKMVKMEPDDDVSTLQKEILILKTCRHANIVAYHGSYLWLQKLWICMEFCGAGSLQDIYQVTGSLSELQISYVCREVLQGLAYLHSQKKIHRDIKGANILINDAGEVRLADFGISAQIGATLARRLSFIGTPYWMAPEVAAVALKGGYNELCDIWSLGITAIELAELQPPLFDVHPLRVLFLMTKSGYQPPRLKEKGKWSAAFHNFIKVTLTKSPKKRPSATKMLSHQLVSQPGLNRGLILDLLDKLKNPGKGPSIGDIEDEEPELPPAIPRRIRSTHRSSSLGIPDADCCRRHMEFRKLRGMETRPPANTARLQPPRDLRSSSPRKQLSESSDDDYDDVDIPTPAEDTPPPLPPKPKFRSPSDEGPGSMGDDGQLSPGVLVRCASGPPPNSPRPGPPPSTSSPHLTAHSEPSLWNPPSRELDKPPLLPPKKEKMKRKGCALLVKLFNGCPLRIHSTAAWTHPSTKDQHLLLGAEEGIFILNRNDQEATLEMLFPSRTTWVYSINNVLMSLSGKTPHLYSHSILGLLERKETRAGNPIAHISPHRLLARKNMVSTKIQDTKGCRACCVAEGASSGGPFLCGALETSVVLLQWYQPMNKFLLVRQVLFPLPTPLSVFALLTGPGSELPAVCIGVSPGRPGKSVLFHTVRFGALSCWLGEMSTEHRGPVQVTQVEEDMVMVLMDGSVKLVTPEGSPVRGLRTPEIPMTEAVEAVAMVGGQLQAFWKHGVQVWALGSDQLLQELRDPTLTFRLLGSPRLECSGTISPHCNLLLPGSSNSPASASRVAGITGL
Target sequence in this assay (Q96SW2 whole entry): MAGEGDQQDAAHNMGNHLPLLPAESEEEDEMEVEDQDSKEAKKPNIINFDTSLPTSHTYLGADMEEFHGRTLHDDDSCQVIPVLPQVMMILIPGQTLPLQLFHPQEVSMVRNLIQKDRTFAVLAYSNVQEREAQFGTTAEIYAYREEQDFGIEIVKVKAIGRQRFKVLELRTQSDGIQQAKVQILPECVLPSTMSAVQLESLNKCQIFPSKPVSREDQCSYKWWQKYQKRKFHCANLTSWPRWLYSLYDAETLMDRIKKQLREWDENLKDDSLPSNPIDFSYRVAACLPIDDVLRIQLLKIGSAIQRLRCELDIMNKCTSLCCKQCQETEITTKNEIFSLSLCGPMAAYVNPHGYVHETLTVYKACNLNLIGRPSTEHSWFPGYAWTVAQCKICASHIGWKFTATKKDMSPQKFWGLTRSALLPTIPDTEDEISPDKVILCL
Data set [2] has as its target T1, Protein cereblon/Mitogen-activated protein kinase kinase kinase kinase 1. Nature of the data set: PROTAC activity at CRBN/HPK1 in human Jurkat cells assessed as maximal degradation of HPK1 protein incubated for 24 hrs by Western blotting analysis relative to control. It counts as cell-based.
Target sequence in this assay (Q92918 whole entry, looked up): as the sequence (Q92918 whole entry) above
Target sequence in this assay (Q96SW2 whole entry, looked up): as the sequence (Q96SW2 whole entry) above
Data set [3] in a line: Stability in mouse liver microsomes assessed as parent compound remaining measured after 5 mins. It counts as ADME, Microsome. The settings on record: read-out: Stability.
Data set [4] addresses T1, Protein cereblon/Mitogen-activated protein kinase kinase kinase kinase 1. The data set is described as follows: PROTAC activity at CRBN/HPK1 in human Jurkat cells assessed as maximal degradation of HPK1 protein at 1 uM incubated for 24 hrs by Western blotting analysis relative to control. It counts as cell-based.
Target sequence in this assay (Q92918 whole entry, looked up): as the sequence (Q92918 whole entry) above
Target sequence in this assay (Q96SW2 whole entry, looked up): as the sequence (Q96SW2 whole entry) above
The target is the same in data set [5]. The data set is described as follows: PROTAC activity at CRBN/HPK1 in human Jurkat cells assessed as degradation of HPK1 protein at 1 uM preincubated with MG132 followed by compound addition incubated for 24 hrs by Western blotting analysis. In kind it is cell-based.
Target sequence in this assay (Q92918 whole entry, looked up): as the sequence (Q92918 whole entry) above
Target sequence in this assay (Q96SW2 whole entry, looked up): as the sequence (Q96SW2 whole entry) above
For data set [6] the target is unchanged. Nature of the data set: PROTAC activity at CRBN/HPK1 in human Jurkat cells assessed as degradation of HPK1 protein at 1 uM preincubated with cycloheximide followed by compound addition incubated for 4 hrs by Western blotting analysis. It counts as cell-based.
Target sequence in this assay (Q92918 whole entry, looked up): as the sequence (Q92918 whole entry) above
Target sequence in this assay (Q96SW2 whole entry, looked up): as the sequence (Q96SW2 whole entry) above
The subject of data set [7] is Jurkat. The data set is described as follows: Immunostimulatory activity in anti-CD3/CD28 induced human Jurkat cells assessed as increase in IL-2 release incubated for 24 hrs by ELISA. In kind it is functional, cell-based.
The subject of data set [8] is Jurkat. Nature of the data set: Immunostimulatory activity in anti-CD3/CD28 induced human Jurkat cells assessed as increase in IL-2 release at 10 to 10000 nM incubated for 24 hrs in presence of PGE2 and NECA by ELISA. In kind it is functional, cell-based. The settings on record: dose 10-10000 nM.
Data set [9] concerns Jurkat. Nature of the data set: Antiproliferative activity against human Jurkat cells assessed as inhibition of cell growth at 4 to 10000 nM incubated for 3 days by CCK-8 assay. In kind it is functional, cell-based. The settings on record: dose 4-10000 nM, time 3.0 day.
Data set [10] deals with T2, Mitogen-activated protein kinase kinase kinase kinase 3 (Homo sapiens, UniProt Q8IVH8).
T2 sequence (Q8IVH8 whole entry): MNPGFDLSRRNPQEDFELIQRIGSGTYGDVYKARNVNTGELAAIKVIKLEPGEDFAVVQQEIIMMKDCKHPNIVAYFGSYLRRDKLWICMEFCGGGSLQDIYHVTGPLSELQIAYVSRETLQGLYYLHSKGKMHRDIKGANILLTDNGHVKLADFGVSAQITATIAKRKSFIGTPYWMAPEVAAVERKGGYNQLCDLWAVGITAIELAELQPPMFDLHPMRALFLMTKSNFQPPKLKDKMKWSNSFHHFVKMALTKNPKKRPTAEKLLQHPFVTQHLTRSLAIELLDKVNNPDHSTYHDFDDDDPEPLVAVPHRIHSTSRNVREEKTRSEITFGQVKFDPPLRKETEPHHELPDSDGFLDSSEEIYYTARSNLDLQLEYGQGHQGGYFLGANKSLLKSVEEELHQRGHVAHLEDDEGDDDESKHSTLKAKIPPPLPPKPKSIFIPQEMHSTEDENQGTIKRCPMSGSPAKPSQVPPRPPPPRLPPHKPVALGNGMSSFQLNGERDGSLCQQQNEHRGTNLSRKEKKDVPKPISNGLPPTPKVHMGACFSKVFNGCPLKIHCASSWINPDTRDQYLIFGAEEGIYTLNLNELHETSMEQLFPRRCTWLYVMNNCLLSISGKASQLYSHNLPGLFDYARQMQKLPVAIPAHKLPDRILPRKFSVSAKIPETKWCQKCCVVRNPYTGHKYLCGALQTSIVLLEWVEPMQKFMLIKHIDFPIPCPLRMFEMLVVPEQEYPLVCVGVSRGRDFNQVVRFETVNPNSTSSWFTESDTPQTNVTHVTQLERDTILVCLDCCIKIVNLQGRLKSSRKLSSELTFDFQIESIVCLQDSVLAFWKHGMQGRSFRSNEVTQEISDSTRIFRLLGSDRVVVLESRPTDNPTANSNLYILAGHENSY
Nature of the data set: Inhibition of GLK (unknown origin).

The subject of data set [11] is Jurkat. Nature of the data set: Immunostimulatory activity in anti-CD3/CD28 induced human Jurkat cells assessed as downregulation of NF-kappaB expression by Western blotting analysis. In kind it is functional, cell-based.
Data set [12] concerns Jurkat. Nature of the data set: Immunostimulatory activity in anti-CD3/CD28 induced human Jurkat cells assessed as downregulation of NF-kappaB phosphorylation by Western blotting analysis. It counts as functional, cell-based.
Data set [13] has as its system Jurkat. Nature of the data set: Immunostimulatory activity in anti-CD3/CD28 induced human Jurkat cells assessed as upregulation of ERK phosphorylation by Western blotting analysis. It counts as functional, cell-based.
Data set [14] in a line: AUC (0 to t) in ICR mouse at 10 mg/kg,po measured upto 24 hrs by LC-MS analysis. In kind it is ADME, organism-based. The note with it: in vivo.
The next data set deals with CT26. The data set is described as follows: Antitumor activity against mouse CT26 cells implanted BALB/c mouse model assessed as tumor growth inhibition at 25 mg/kg,po administrated once daily for 15 days relative to control. It counts as functional. The settings on record: CT26, 360 h, time 15 day, read-out: TGI.
The target in data set [15] is T1, Protein cereblon/Mitogen-activated protein kinase kinase kinase kinase 1. Nature of the data set: PROTAC activity at CRBN/HPK1 in human Jurkat cells assessed as degradation of HPK1 protein by Western blotting analysis. In kind it is cell-based.
Target sequence in this assay (Q92918 whole entry, looked up): as the sequence (Q92918 whole entry) above
Target sequence in this assay (Q96SW2 whole entry, looked up): as the sequence (Q96SW2 whole entry) above
Data set [16] has the same target. The data set is described as follows: PROTAC activity at CRBN/HPK1 in human Jurkat cells assessed as downregulation of GLK expression by Western blotting analysis. In kind it is cell-based.
Target sequence in this assay (Q92918 whole entry, looked up): as the sequence (Q92918 whole entry) above
Target sequence in this assay (Q96SW2 whole entry, looked up): as the sequence (Q96SW2 whole entry) above
The target is the same in data set [17]. The data set is described as follows: PROTAC activity at CRBN/HPK1 in human Jurkat cells assessed as downregulation of KHS expression by Western blotting analysis. In kind it is cell-based.
Data set [18] shares this target. The data set is described as follows: PROTAC activity at CRBN/HPK1 in human Jurkat cells assessed as upregulation of HGK expression by Western blotting analysis. It counts as cell-based.

Active and inactive are the calls of the source. The calls are words filed in the database; no cut-off is given here.

Consider `Cc1cc(-c2c[nH]c3ncc(-c4ccc(C5CCN(C6CN(c7ccc8c(c7)C(=O)N(C7CCC(=O)NC7=O)C8=O)C6)CC5)cc4)nc23)ccc1C(=O)N(C)C` (centres undefined), for which the DC50 in data set [1] was 4.5 nM. For the same compound, in [2], the Emax is 80.5%. Besides, the remaining at 5 min in [3] was 100%. Further, the Activity is 100% in data set [4] and “Dose-Dependent Effect” with Jurkat [7]. Also, the result (in data set [5]; in the data set with Jurkat [8]; in the data set on Jurkat [9]; in data set [18]) was inactive. Also, the outcome (in data set [6]; in the data set on Jurkat [11]; in the data set with Jurkat [12]; with Jurkat [13]; in data set [15]; in data set [16]) was Active. In data set [17], the outcome was Active. The IC50 in data set [10] is above 500 nM. Moreover, the AUC(0-t) at 24 h in data set [14] came out at 137 µg·h/mL. In the data set with CT26, the inhibition in vivo at 25 mg/kg was 47.2%.
